Results on five compounds are retold here after patent US20200080055A1, “COMPOSITIONS AND METHODS FOR GENERATING HAIR CELLS BY UPREGULATING PI3K” (Frequency Therapeutics, Inc., priority 2018, published 2020).

For assay [1], the system named is cochlear Lgr5 progenitor cells. Kind of assay: Lgr5+ assay: expansion and enrichment of cochlear Lgr5 progenitor cells in 3D culture. It counts as cell-based, mouse. The source says:
“Stem Cell Proliferation Assay” as used herein is an assay to determine the capacity for agent(s) to induce the creation of stem cells from a starting cell population. In an exemplary Stem Cell Proliferation Assay, the number of cells for an initial cell population is harvested from a Lgr5-GFP mouse such as a B6.129P2-Lgr5tm1(cre/ERT2)Cle/J mouse (also known as Lgr5-EGFP-IRES-creERT2 or Lgr5-GFP mouse, Jackson Lab Stock No: 008875) between the age of 0 to 5 days, by isolating the organ of Corti sensory epithelium and dissociating the epithelium into single cells. Approximately 5000 cells are entrapped in 40 μl of culture substrate (for example: Matrigel (Corning, Growth Factor Reduced)) and placed at the center of wells in a 24-well plate with 500 μl of an appropriate culture media, growth factors and agent being tested. Appropriate culture media and growth factors include Advanced DMEM/F12 with media Supplements (1×N2, 1×B27, 2 mM Glutamax, 10 mM HEPES, 1 mM N-acetylcysteine, and 100 U/ml Penicillin/[…] Streptomycin) and growth factors (50 ng/ml EGF, 50 ng/ml bFGF, and 50 ng/ml IGF-1) as well as the agent(s) being assessed are added into each well. Cells are cultured for 10 days in a standard cell culture incubator at 37° C. and 5% CO2, with media change every 2 days. The number of Lgr5+ cells is quantified by counting the number of cells identified as Lgr5+ in an In Vitro Lgr5 activity assay. The fraction of cells that are Lgr5+ is quantified by dividing the number of cells identified as Lgr5+ in a cell population by the total number of cells present in the cell population. The number of hair cells in a population may be measured by staining with hair cell marker (e.g., MyosinVIIa), or using an endogenous reporter of hair cell genes (e.g., Pou4f3-GFP, Atoh1-nGFP) and analyzing using flow cytometry. The fraction of cells that are hair cells is quantified by dividing the number of cells identified as hair cells in a cell population by the total number of cells present in the cell population. Gene and/or protein expression and/or activity is measured in this assay using methods known in the art such as by PCR, Nanostring, immunostaining, RNAseq, RNA hybridization, or Western blot analysis.
Neonatal Lgr5-EGFP-IRES-Cre-ER mice (The Jackson Laboratory, strain 8875) were used to analyze the effects of small molecules on cochlear stem cell expansion (see Barker et al., Nature 449, 1003-7 (2007). This strain allowed for visualization and quantification of EGFP cells.
All animal studies were conducted under an approved institutional protocol per National Institutes of Health guidelines. Using neonatal animals, cochleae were dissected and the organ of Corti (sensory epithelium) was separated from the stria vascularis (ion transport epithelium) and the modiolus (nerve tissue). Epithelia were then collected and treated with TrypLE for 15-20 minutes to obtain single cells. The cells were then filtered ([…]) and suspended in a Matrigel (Corning) dome for 3D culture seeded at 0.5 cochlea per well.
Expansion of Lgr5 Cells: Cells were cultured in a 3D system and bathed in a serum free 1:1 mixture of DMEM and F12, supplemented with Glutamax (GIBCO), N2, B27 (Invitrogen), EGF (50 ng/mL; Chemicon), bFGF (50 ng/mL; Chemicon), IGF-1 (50 ng/mL; Chemicon), and small molecules for seven days. Media was changed every other day. Treatments were run in triplicate or quadruplicate.
Lgr5 cells were quantified after 7-10 days. Cell colonies were dissociated into single cells using TrypLE. The cells were then stained with propidium iodide (PI) and analyzed using a flow cytometer to count Lgr5-EGFP cells. The percentage of viable Lgr5 cells was plotted against the concentration in GraphPad Prism.
Organ of Corti are dissected from Lgr5 GFP+ mice and dissociated as single cells as described above. Background media contains the same supplements and growth factors at the same concentrations as described above. […]

The next assay has as its system HDAC. Conditions: Table 5; cited from earlier work.

“Also recorded” adds a separate entry of the source.

Take VO-Ohpic: the “enhancement of CHIR-elicited expansion and enrichment of cochlear Lgr5 progenitor cells” value in assay [1] (VO-Ohpic 3 uM added to CHIR) is given as “enhanced”. For `Cc1c[nH]c(-c2cnc(NCCNc3ccc(C#N)cn3)nc2-c2ccc(Cl)cc2Cl)n1` [CHIR99021], the “expansion and enrichment of cochlear Lgr5 progenitor cells in culture” value in assay [1] (CHIR alone (GSK3 inhibition)) was “elicits the expansion and enrichment”. For the compound `CCn1cc(C(=O)O)c(=O)c2c(N)c(F)c(NC3CCCCC3)cc21` [AS1842856], the “enrichment of Lgr5 cells (percentage)” value in assay [1] (AS1842856 425 nM combined with VPA 1 mM) is recorded as “enriched according to percentage”. Moreover, the “expansion of cochlear Lgr5+ progenitor cells in culture” value in assay [1] (AS1842856 425 nM in background of EFI) was “elicits the expansion”. Besides, in assay [1] (AS1842856 concentration series in background of EFI), the “LGR5+ cell growth and enrichment / expansion of cochlear progenitor cells” value is on record as “concentration-dependent effects; also recorded: enhances expansion of cochlear progenitor cells”. As to `CC(C)(C)C(=O)Nc1ccc2c(c1)C(=O)C(=O)c1ccccc1-2` [SF1670], in assay [1] (SF1670 0.1 uM added to CHIR), the “enhancement of CHIR-elicited expansion and enrichment of cochlear Lgr5 progenitor cells” value is on record as “further enhanced”.

Take `O=C([O-])CCCc1ccccc1.[Na+]` [Na phenylbutyrate]: the Class selectivity result with HDAC is “Class I >”.
